Source: US5101072A, “Sulfonylhydrazines and their use as antineoplastic agents and as antitrypanosomal agents” (Yale University, priority 1989, dated 1992)

How the values were obtained:
L1210 leukemia = experiment: Survival time of mice bearing the L1210 leukemia; format: in vivo; conditions: for 60-day cures, % / % T/C (average survival time of treated/control animals × 100): L1210, at optimum effective daily dose, once daily × 6 days
Procedure: The tumor-inhibitory properties of several compounds, e.g., 1,2-bis(methylsulfonyl)-1-methylhydrazine, 1-methyl-1,2,2-tris(methylsulfonyl)hydrazine, 1,2-bis(methylsulfonyl)-1,2-dimethylhydrazine and 1-(2-chloroethyl)-1,2,2-tris(methylsulfonyl)hydrazine were determined by measuring the effects of these agents on the survival time of mice bearing the L1210 leukemia as described by K. Shyam, L. A. Cosby, and A. C. Sartorelli, J. Med. Chem., 28, 525-527 (1985).
^a Administered once daily for 6 consecutive days, beginning 24 hours
after tumor transplantation with 5-10 animals being used per group.
^b Average change in body weight from onset to termination of therapy
^c % T/C = average survival time of treated/control animals ×

[1] = tested on: T. rhodesiense (Y Tat 1.1); experiment: Survival time of CD-1 mice infected with T. rhodesiense (trypanocidal activity); format: in vivo, T. rhodesiense (Y Tat 1.1); CD-1 mice; conditions: for Mean Extension of Life (Table III): administered in 0.05 ml of DMSO, dose not given
Procedure: The trypanocidal properties of several methylating agents including MeSO2 N(Me)N(SO2 Me)2 and MeSO2 N(Me)N(Me)SO2 Me were determined by measuring their effects on the survival time of CD-1 mice infected with T. rhodesiense (Y Tat 1.1), a pleimorphic strain that produces a non-relapsing disease in mice. The level of parasites in the bloodstream and body fluids increases by approximately 10-fold per day and the animals die when the parasite burden exceeds 1 to 2×10^9 cells/ml. Infection with a single viable parasite will kill a mouse in approximately 9 to 10 days.
Mice were infected ip with approximately 10^6 trypanosomes/mouse in phosphate buffered saline containing glucose. This level of parasites produces death in 4 days post-infection. These mice were treated (ip) with a single dose of drug dissolved in the appropriate vehicle 3 days after infection, when the parasitemia was 1 to 3×10^8 cells/ml of blood and the mice, if untreated, would survive for only 24 additional hours. The number of days the mice survived beyond that of the untreated controls was used as a measure of trypanocidal activity. The level of parasitemia in treated mice was measured at regular intervals to distinguish between parasite-related and drug toxicity-related deaths. No toxic deaths were observed. Mice that survived for 30 days without detectable parasitemias were considered cured. The effects of a single dose of various methylating agents on the survival time of trypanosome-bearing mice are summarized in Table II.
^a Drug that was administered was dissolved in 0.5 ml of phosphate
buffered saline containing glucose.
^b Drug that was administered was dissolved in 0.05 ml of DMSO.

T. rhodesiense = experiment: Oral trypanocidal activity (preliminary); format: in vivo, T. rhodesiense; mice; conditions: aqueous solutions, preliminary results
Excerpt: Orally active trypanocidal agents are desirable since, in areas where trypanosomiasis is endemic, other routes of drug administration frequently present problems.

[2] = Hydrolysis / decomposition in aqueous solution; format: physicochemical; conditions: 50 μM solution, phosphate buffered saline (pH 7.6), 37° C.
Procedure: In the case of 1,2,2-tris(methylsulfonyl)-1-methylhydrazine, this reaction occurs slowly. A 50 μM solution of this compound hydrolyzes at an initial rate of 1% per minute in phosphate buffered saline (pH 7.6) at 37° C.
Hydrolysis is expected to occur preferentially at N-2 to generate the 1,2-bis(sulfonyl)-1-methylhydrazine. The sulfonic acid and 1,2-bis(sulfonyl)-1-methylhydrazine that are generated are both ionized under these conditions. The release of protons can be used to follow the decomposition of these and related compounds. The release of protons can be assayed by following the decrease in absorbance at 560 nm of a weakly buffered (1 mM potassium phosphate) phenol red (21 mg/l) solution; initial pH 7.6 at 37° C. The assay can be calibrated using HCl standards.
(§1) The reaction of 1,2-bis(sulfonyl)-1-methylhydrazine with water at pH 7.4-7.6 at 37° C. can be followed by proton release and/or methanol generation. Methanol generation can be assayed using alcohol oxidase and measuring the resultant O2 consumption using a Gilson oxygraph. This assay can be calibrated using methanol standards. The reaction of 1,2-bis(sulfonyl)-1-methylhydrazine with water is relatively fast [a 50 μM solution of 1,2-bis(methylsulfonyl)-1-methylhydrazine decomposes at an initial rate of 12-15% per minute in phosphate buffered saline (pH 7.6) at 37° C.] compared to the hydroylsis of 1,2,2-tris(methylsulfonyl)-1-methylhydrazine. RSO2 N=NMe may also decompose by a free radical mechanism to a smaller extent and methylate by the generation of methyl radicals.

[3] = Methanol generation in vitro (spontaneous breakdown to generate reactive methyl groups); format: physicochemical; conditions: relative; PhSO2 N(Me)NHSO2 Ph = 1.0
Procedure: as §1
Methanol was produced by these agents in aqueous solutions free from strong competing nucleophiles. Formation of this alcohol was used as a measure of the rate of spontaneous breakdown of these compounds to generate reactive methyl groups. […] These findings provide strong evidence that methylation is essential for the observed biological activity of these compounds.

[4] = mice bearing L1210, at optimum effective daily dose
[5] = single ip dose 0.2 mmol/kg in 0.5 ml phosphate buffered saline containing glucose
[6] = single ip dose 0.2 mmol/kg in 0.05 ml of DMSO

CS(=O)(=O)N(N(CCCl)S(=O)(=O)c1ccc(Br)cc1)S(C)(=O)=O [Br-4-C6 H4 SO2 N(CH2 CH2 Cl)N(SO2 Me)2, 2,2-Bis(methylsulfonyl)-1-[(4-bromophenyl)sulfonyl]-1-(2-chloroethyl)hydrazine]
60-day cures, % (L1210 leukemia): 60% | % T/C (average survival time of treated/control animals × 100) (L1210 leukemia): 241% | AvΔ Wt, % (average change in body weight from onset to termination of therapy) (L1210 leukemia; [4]): +0.9%

CS(=O)(=O)N(N(CCCl)S(=O)(=O)c1ccccc1)S(C)(=O)=O [C6 H5 SO2 N(CH2 CH2 Cl)N(SO2 Me)2, 2,2-bis(methylsulfonyl)-1-(2-chloroethyl)-1-phenylsulfonylhydrazine]
60-day cures, % (L1210 leukemia): 40% | % T/C (average survival time of treated/control animals × 100) (L1210 leukemia): 187% | AvΔ Wt, % (average change in body weight from onset to termination of therapy) (L1210 leukemia; [4]): +0.5%

CS(=O)(=O)N(N(CCCl)S(=O)(=O)c1ccc(Cl)cc1)S(C)(=O)=O [Cl-4-C6 H4 SO2 N(CH2 CH2 Cl)N(SO2 Me)2, 2,2-Bis(methylsulfonyl)-1-(2-chloroethyl)-1-[(4-chlorophenyl)sulfonyl]hydrazine]
60-day cures, % (L1210 leukemia): 60% | % T/C (average survival time of treated/control animals × 100) (L1210 leukemia): 203% | AvΔ Wt, % (average change in body weight from onset to termination of therapy) (L1210 leukemia; [4]): -3.4%

CN(C)N=Nc1[nH]cnc1C(N)=O [DTIC, 5-(3,3-dimethyl-1-triazenyl)-1H-imidazole-4-carboxamide]
Mean Extension of Life [1, 5]: 6.0 days

CCOS(=O)(=O)OCC [Et2 SO4]
Mean Extension of Life [1, 6]: 0 days

CCNNCC [EtNHNHEt]
Mean Extension of Life [1, 5]: 0 days

COS(=O)(=O)OC [Me2 SO4]
Mean Extension of Life [1, 6]: 3.0 days

Cc1ccc(S(=O)(=O)N(CCCl)N(S(C)(=O)=O)S(C)(=O)=O)cc1 [Me-4-C6 H 4 SO2 N(CH2 CH2 Cl)N(SO2 Me)2, 2,2-bis(methylsulfonyl)-1-(2-chloroethyl)-1-(4-toluenesulfonyl)hydrazine]
60-day cures, % (L1210 leukemia): 60% | % T/C (average survival time of treated/control animals × 100) (L1210 leukemia): 215% | AvΔ Wt, % (average change in body weight from onset to termination of therapy) (L1210 leukemia; [4]): -12.0%

CNN [MeNHNH2, methylhydrazine]
Mean Extension of Life ([1]; single ip dose 0.5 mmol/kg in 0.5 ml phosphate buffered saline containing glucose): 1 days

CNNC [MeNHNHMe, 1,2-dimethylhydrazine]
Mean Extension of Life [1, 5]: 4.3 days

COc1ccc(S(=O)(=O)N(CCCl)N(S(C)(=O)=O)S(C)(=O)=O)cc1 [MeO-4-C6 H4 SO2 N(CH2 CH2 Cl)N(SO2 Me)2, 2,2-Bis(methylsulfonyl)-1-(2-chloroethyl)-1-[(4-methoxyphenyl)sulfonyl]hydrazine]
60-day cures, % (L1210 leukemia): 100% | AvΔ Wt, % (average change in body weight from onset to termination of therapy) (L1210 leukemia; [4]): +5.9%

CS(=O)(=O)N(CCBr)N(S(C)(=O)=O)S(C)(=O)=O [MeSO2 N(CH2 CH2 Br)N(SO2 Me)2, 1-(2-bromoethyl)-1,2,2-tris(methylsulfonyl)hydrazine]
60-day cures, % (L1210 leukemia): 0% | % T/C (average survival time of treated/control animals × 100) (L1210 leukemia): 213% | AvΔ Wt, % (average change in body weight from onset to termination of therapy) (L1210 leukemia; [4]): -2.0%

CS(=O)(=O)N(CCI)N(S(C)(=O)=O)S(C)(=O)=O [MeSO2 N(CH2 CH2 I)N(SO2 Me)2, 1-(2-iodoethyl)-1,2,2-tris(methylsulfonyl)hydrazine]
60-day cures, % (L1210 leukemia): 0% | % T/C (average survival time of treated/control animals × 100) (L1210 leukemia): 110% | AvΔ Wt, % (average change in body weight from onset to termination of therapy) (L1210 leukemia; [4]): +8.0%

CS(=O)(=O)OCCN(N(S(C)(=O)=O)S(C)(=O)=O)S(C)(=O)=O [MeSO2 N(CH2 CH2 OSO2 Me)N(SO2 Me)2, 1-(2-methylsulfonyloxy)ethyl-1,2,2-tris(methylsulfonyl)hydrazine]
60-day cures, % (L1210 leukemia): 0% | % T/C (average survival time of treated/control animals × 100) (L1210 leukemia): 198% | AvΔ Wt, % (average change in body weight from onset to termination of therapy) (L1210 leukemia; mouse, in vivo): -4.2%

CN(N(C)S(C)(=O)=O)S(C)(=O)=O [MeSO2 N(Me)N(Me)SO2 Me, 1,2-Bis(methylsulfonyl)-1,2-dimethylhydrazine]
cure (30 days without detectable parasitemias) [1, 6]: 25% | Mean Extension of Life for relapsing animals ([1]; single ip dose 0.2 mmol/kg in 0.05 ml of DMSO, relapsing animals): 9.7 days | Trypanocidal activity on oral administration compared with Table II (T. rhodesiense): comparable activity to that reported in Table II | 60-day cures, % (L1210 leukemia): 0% | % T/C (average survival time of treated/control animals × 100) (L1210 leukemia): 158% | AvΔ Wt, % (average change in body weight from onset to termination of therapy) (L1210 leukemia; mouse, in vivo): -11.3%

CN(N(S(C)(=O)=O)S(C)(=O)=O)S(C)(=O)=O [MeSO2 N(Me)N(SO2 Me)2, 1-Methyl-1,2,2-tris(methylsulfonyl)hydrazine]
Mean Extension of Life [1, 6]: 7.7 days | cure (30 days without detectable parasitemias) ([1]; single ip dose 1.0 mmol/kg in 0.05 ml of DMSO): 100% | Trypanocidal activity on oral administration compared with Table II (T. rhodesiense): comparable activity to that reported in Table II | 60-day cures, % (L1210 leukemia): 0% | % T/C (average survival time of treated/control animals × 100) (L1210 leukemia): 186% | AvΔ Wt, % (average change in body weight from onset to termination of therapy) (L1210 leukemia; mouse, in vivo): -7.7% | Initial rate of hydrolysis / decomposition [2]: 1 % per minute

COc1ccc(S(=O)(=O)NN(C)S(C)(=O)=O)cc1 [MeSO2 N(Me)NHSO2 C6 H4 -p-OMe]
Mean Extension of Life [1, 6]: 4.5 days

COS(C)(=O)=O [MeSO2 OMe]
Mean Extension of Life [1, 6]: 1.0 days

CN(N=O)C(N)=O [N-Methyl-N-nitrosourea]
Mean Extension of Life [1, 6]: 8.0 days

CN(NC(=O)c1ccccc1)C(=O)c1ccccc1 [PhCON(Me)NHCOPh]
Mean Extension of Life (Table III) [1]: 0 days | Relative Methanol Generation in vitro [3]: 0

CN(NS(=O)(=O)c1ccccc1)S(=O)(=O)c1ccccc1 [PhSO2 N(Me)NHSO2 Ph]
Mean Extension of Life (Table III) [1]: 5 days | Mean Extension of Life [1, 6]: 5.0 days | Relative Methanol Generation in vitro [3]: 1.0

O=S(=O)(NNS(=O)(=O)c1ccccc1)c1ccccc1 [PhSO2 NHNHSO2 Ph]
Mean Extension of Life (Table III) [1]: 0 days | Relative Methanol Generation in vitro [3]: 0

CNNCc1ccc(C(=O)NC(C)C)cc1 [Procarbazine, procarbazine]
Mean Extension of Life [1, 5]: 5.0 days

CN(N=O)C(=O)N[C@H]1C(O)O[C@H](CO)[C@@H](O)[C@@H]1O (stereo partly drawn) [Streptozotocin, streptozotocin]
Mean Extension of Life [1, 5]: 4.3 days
